Measurements reported in patent US20200171063A1, “Use Of Cholesterol For Promoting Survival And Proliferation Of Primary Medulloblastoma Cells” (Institute For Cancer Research d/b/a The Research Institute …, priority 2017, published 2020).

Legend:
[1] = system: MB cells isolated from Ptch1+/− mice; experiment: Ki67 immunocytochemistry of cultured primary MB cells; format: cell-based, mouse
Procedure: MB cells isolated from Ptch1^+/− mice were cultured with NB-B27 culture medium (lacking cholesterol) in the presence of simvastatin or triparanol at designated concentrations.
Cell culture: Primary mouse medulloblastoma cells were isolated from full-blown mouse-derived tumor as described before (Yang et al., 2008, Cancer Cell, 14, 135-145). Obtained cells were cultured on glass coverslips coated with 0.1 mg/ml poly-D-lysine (Millipore, A-003-E). Cells were pulsed with 10 μM of BrdU (Millipore, 19-160) for 2 hours prior to the material collection time point. […]
Histology and immunohistochemistry: Cultured primary MB cells were fixed with 4% PFA on PBS for 15 minutes, permeabilized, and blocked in 10% normal goat serum on PBST (PBS, 0.1% Triton-X100) for 1 hour at room temperature and stained against Ki67 (Abcam, ab15580, 1:1000), NeuN (Abcam, ab104224, 1:200), Caspase 3 (Cell Signaling, 9662, 1:500), BrdU (Sigma-Aldrich, B-8434, 1:500), mCherry (Abcam, ab167453, 1:500), Zic1 (Generous gift from Dr. Sigal, Dana Farber Research Institute, 1:200), S1000 (Sigma-Aldrich, 1:500), YFP (Life Technologies, 1:500).
Prior to BrdU immunostaining, cells were incubated in pH 5.0 buffer for 30 minutes at 37 C. Secondary antibodies were applied at dilution 1:500 on 10% normal goat serum on PBST for 2 hours at room temperature. Samples were counterstained with DAPI and mounted with Fluoromount-G.
MB cells were isolated from Ptc^+/− mouse and cultured in presence of simvastatin (see, FIG. 2A, panels B-D) or triparanol (see, FIG. 2A, panel E), and water-soluble cholesterol (see, FIG. 2A, panels F-J). After 48 hours in vitro, culture cells were fixed, stained against Ki67 (red), and counterstained with DAPI. […] Significance asterisk key: p value <0.05 (*), p<0.01 (**), p<0.001 (***), p<0.0001 (****).

[2] = system: Hh signaling (Gli1 expression) in MB cells isolated from Ptch1+/− mice; experiment: Western blot of Gli1 protein expression in Ptc+/− MB cells; format: cell-based, mouse
From the text: Western blotting: Cells and tissues were lysed in RIPA buffer (Thermo) supplemented with protease (Roche) and phosphatase (Thermo) inhibitors cocktail. Total protein lysates were separated in 8% SDS-PAGE and transferred on PVDF membrane. Membranes were probed with antibodies against Gli1 (Cell Signaling, 1:1000) and GAPDH (Sigma-Aldrich, 1:1000). Western Blot signals were detected with SuperSignal West Pico Substrate and exposed on films. […] Having observed that MB cell proliferation was compromised after cholesterol deficiency, it was postulated that cholesterol may promote Hh pathway activation. Western blotting: Cells and tissues were lysed in RIPA buffer (Thermo) supplemented with protease (Roche) and phosphatase (Thermo) inhibitors cocktail. Total protein lysates were separated in 8% SDS-PAGE and transferred on PVDF membrane. Membranes were probed with antibodies against GLI1 (Cell Signaling, 1:1000), NSDHL (Proteintech, 1:1000), Ptch1 (Novus Biologicals, 1:1000), GAPDH (Sigma-Aldrich, 1:1000). Western Blot signals were detected with SuperSignal West Pico Substrate and exposed on films. MB cells isolated from Ptch1^+/− mice were treated with Simvastatin with and without addition of WSC. At 48 hours after the treatment, cells were harvested to measure Hh signaling through examining Gli1 expression by Western blotting. […]

[3] = system: Hh signaling (Gli1 protein expression) in NIH3T3 cells; experiment: Western blot of Gli1 protein in NIH3T3 cells upon Hh treatment; format: cell-based
From the text: (§1) Having observed that MB cell proliferation was compromised after cholesterol deficiency, it was postulated that cholesterol may promote Hh pathway activation. Western blotting: Cells and tissues were lysed in RIPA buffer (Thermo) supplemented with protease (Roche) and phosphatase (Thermo) inhibitors cocktail. Total protein lysates were separated in 8% SDS-PAGE and transferred on PVDF membrane. Membranes were probed with antibodies against GLI1 (Cell Signaling, 1:1000), NSDHL (Proteintech, 1:1000), Ptch1 (Novus Biologicals, 1:1000), GAPDH (Sigma-Aldrich, 1:1000). Western Blot signals were detected with SuperSignal West Pico Substrate and exposed on films.
MB cells isolated from Ptch1^+/− mice were treated with Simvastatin with and without addition of WSC. At 48 hours after the treatment, cells were harvested to measure Hh signaling through examining Gli1 expression by Western blotting. To further examine the requirement of cholesterol in Hh signal transduction, NIH3T3 cells that have all components involved in Hh signaling were utilized.
FIG. 4 (panels C and D) show Western blot analysis of GLI1 protein expression in Ptcfl/fl (see, FIG. 4, panel C) and SmoM2 MEFs (see, FIG. 4, panel D) following CreYFP carrying lentivirus infection and subsequent simvastatin, triparanol and water soluble cholesterol treatment for 48 hours in vitro. […] GAPDH was used as a loading control. […]

[4] = system: Hh signaling (Gli1 expression) in Ptch1-deficient MEFs; experiment: Western blot of Gli1 protein in Ptch1-deficient MEFs (Ptch1fl/fl + Cre lentivirus); format: cell-based, mouse
From the text: as §1
(§2) Primary mouse embryonic fibroblasts (MEFs) from Ptch1fl/fl mice carrying a proportion of Ptch1 gene flanked by loxp sites (Ellis et al., Genesis, 2003, 36, 158-161), or SmoM2 mice expressing a constitutively activated form of Smo upon Cre recombination (Jeong et al., Genes & Develop., 2004, 18, 937-951) were generated. MEFs were then infected with a lentivirus carrying Cre recombinase to activate Hh signaling, or with an empty vector as a control. At 48 hours after the infection, MEFs were harvested to examine Gli1 protein expression by Western blotting. […]

MB cells = experiment: MTT viability assay of MB cells; format: cell-based, mouse; conditions: after treatment with simvastatin or triparanol
[5] = system: Hh signaling (Gli1 protein expression) in Smo-activated MEFs; experiment: Western blot of Gli1 protein in Smo-activated (SmoM2) MEFs; format: cell-based, mouse; conditions: 48 hours
From the text: as §1, §2

[6] = system: Hh signaling (Ptch1 protein expression) in Gli1-overexpressed NIH3T3 cells; experiment: Western blot of Ptch1 protein in Gli1-overexpressed NIH3T3 cells; format: cell-based; conditions: 48 hours
From the text: as §1
FIG. 4 (panels C and D) show Western blot analysis of GLI1 protein expression in Ptcfl/fl (see, FIG. 4, panel C) and SmoM2 MEFs (see, FIG. 4, panel D) following CreYFP carrying lentivirus infection and subsequent simvastatin, triparanol and water soluble cholesterol treatment for 48 hours in vitro. […] GAPDH was used as a loading control. […] In the absence of Hh ligand, its receptor Ptch1, tethers pathway effector Smo. Bound to Ptch1, Hh releases Smo, causes activation of Gli1 transcription factor, and leads to transcription of Hh pathway genes (Gli1, Ptch1, etc.). Cholesterol promotes Smo activation during Hh signal transduction. […]

[7] = system: Ptc+/− MB subcutaneous allograft; experiment: Ptc+/− MB subcutaneous allograft in CB17/SCID mice; format: in vivo, mouse; conditions: vismodegib 5 mg/kg/day, per os

CC(C)CCC[C@@H](C)[C@H]1CC[C@H]2[C@@H]3CC=C4C[C@@H](O)CC[C@]4(C)[C@H]3CC[C@]12C [WSC, cholesterol]
tumor cell proliferation over time (Ki67 immunocytochemistry) ([1]; 15 μM WSC, 0 to 96 hours time course): prolonged tumor cell proliferation
rescue of repressed MB cell proliferation (Ki67) ([1]; addition of cholesterol after simvastatin or triparanol treatment, 48 hours): significantly rescued
MB cell proliferation in control culture (Ki67) ([1]; exogenous cholesterol, control culture without inhibitor): enhanced MB cell proliferation
Gli1 expression levels (western blotting) ([2]; 15 μM WSC, in vitro for 96 hours): rescued Gli1 expression levels
Gli1 expression in Simvastatin treated MB cells ([2]; addition of exogenous cholesterol, 48 hours): rescued Gli1 expression
Gli1 protein expression after Simvastatin or Triparanol treatment ([3]; NIH3T3 cells, exogenous cholesterol added): upregulated
restoration of Gli1 expression inhibited by simvastatin or triparanol ([4]; addition of exogenous cholesterol): restored

CCN(CC)CCOc1ccc(C(O)(Cc2ccc(Cl)cc2)c2ccc(C)cc2)cc1 (centres unmarked) [triparanol]
percentage of proliferating MB cells (Ki67+) ([1]; 48 hours in culture, NB-B27 medium lacking cholesterol, vs DMSO control): Reduced proliferation
proliferation of MB cells by MTT viability assay (MB cells): Repressed proliferation
Gli1 protein expression ([3]; NIH3T3 cells upon Hh treatment, 48 hours): significantly repressed
Gli1 expression ([4]; 48 hours): dramatically inhibited
up-regulation of Gli1 protein expression [5]: not altered
upregulation of Ptch1 protein expression [6]: not altered

CS(=O)(=O)c1ccc(C(=O)Nc2ccc(Cl)c(-c3ccccn3)c2)c(Cl)c1 [vismodegib (GDC0449), vismodegib]
MB growth [7]: prohibited MB growth
